Measured values from patent publication US7163923B2, “Peptide deformylase activated prodrugs” (Celmed Oncology (USA), Inc., priority 2001, dated 2007).

Test: Toxicity to mammalian cells
Format: cell-based
Details: after 16 hours of exposure
Experimental: Mammalian cells were treated with NB2046 as described above.

CSCCC(NC=O)C(=O)NC(CC(C)C)C(=O)Oc1cc(Cl)ccc1Oc1ccc(Cl)cc1Cl (stereo not shown) [NB2046, 2-(2-formylamino-4-methylsulfanyl-butyrylamino)-4-methyl-pentanoic acid 5-chloro-2-(2,4-dichloro-phenoxy)-phenyl ester]
IC50 at 16 h: ~30 µM
